Target: LBAA glyphosate oxidoreductase variant v.247 (v1v2v3: GLY84, ARG153, ARG334), SEQ ID NO:18 (Ochrobactrum sp. G-1, UniProt D2KI28, H334R/K153R/S2A/S84G)
Assay: Kinetic analysis of glyphosate oxidoreductase variant v.247
Assay type: biochemical, bacterial isolate LBAA (Pseudomonas strain LBAA)
Experimental: The mutagenesis procedure used was that of Mn++-poisoned PCR and the template was a linearized glyphosate oxidoreductase gene plasmid containing the synthetic glyphosate oxidoreductase gene (SEQ ID NO:8). The oligonucleotide primers used were homologous to regions in the vector and flanking the glyphosate oxidoreductase gene. The PCR conditions employed were as follows: 1 minute at 94° C., 2 minutes at 55° C., and 3 minutes at 72° C. and with 35 cycles. A 5:1 ratio of dCTP+dGTP+TTP to dATP was used. The reactions contained MnCl2 at 125, 250, 375, or 500 μM. After the reaction, the amplified product was recloned into a vector containing a weak E. coli promoter. This vector was a pBR327 derivative containing the araBAD promoter and suitable cloning sites. One hundred colonies from this cloning step were then screened in E. coli GB993 for improved glyphosate tolerance and utilization phenotypes in media composed of MOPS minimal medium with glyphosate and Pi or with glyphosate alone, respectively. Growth rates were determined by measuring A550 over a 96 hour period. […] The glyphosate oxidoreductase gene was recloned into the expression vector portion and this phenotype verified. All kinetic analysis was performed on crude E. coli lysates. Putative glyphosate oxidoreductase variant proteins were overexpressed after subcloning the NcoI/HindIII variant glyphosate oxidoreductase gene into PrecA-gene10L expression vector. For overexpression in PrecA-gene10L constructs, GB993 cells containing the vector were induced at a Klett=110-120 in M9 minimal medium with 50 μg/ml nalidixic acid and allowed to grow for 2.5 hours at 37° C. with vigorous shaking. Cells were harvested by centrifugation at 4000 g, 5 minutes at 4° C., and resuspend in 100 mM Tris-HCl, pH 7.1, 1 mM EDTA, 35 mM KCl, 20% glycerol, and 1 mM benzamidine at 3 ml/g cell pellet. Lysates were prepared by breaking the cells in a French press, twice, at 1000 psi. Insoluble debris was removed by centrifugation at 12000 g, 15 minutes at 4° C., and the supernatant was de-salted by passing over a PD-10 column (Sephadex G-25, Pharmacia). The void volume fraction was used as the source of enzyme for kinetic analysis. Protein concentrations were determined using the Bio-Rad protein dye-binding assay. Time and enzyme concentration courses were performed to determine linear ranges. […] Ten minutes was determined to be the optimal time for the enzyme assay using 10 μg lysate. After 10 minutes at 30° C. with shaking, 0.25 ml dinitrophenylhydrazine (DNPH) reagent (0.5 mg/ml in 0.5M HCl) was added and the reaction was allowed to proceed for an additional 5 minutes at 30° C. with shaking. A 1.5M NaOH solution (400 μl) was then added to the assay mix, and the reaction was continued for 5 minutes at 30° C. with shaking. Enzyme activity was determined from the amount of glyoxylate-DNPH adduct formed by measuring A520 against a standard of glyoxylate. Enzyme assays are performed in duplicate on at least two different single colony isolates of a putative glyphosate oxidoreductase variant. To determine Km and Vmax, enzyme assays were performed over a (0.2-2.0)×Km range of glyphosate concentrations. The Km and Vmax were determined from Lineweaver Burk, Eadie-Hofstee and hyperbolic kinetic plots. Vmax was estimated after determining the amount of immunoreactive glyphosate oxidoreductase protein in lysates by immunoblot analysis as described below. Immunoblot analysis was performed following SDS-PAGE and transfer of protein from the gel to nitrocellulose at 500 mA in a Hoeffer transfer apparatus in 25 mM Tris-HCl, 192 mM glycine containing 0.1% SDS and 25% methanol for 1-2 hours. After transfer, the nitrocellulose was incubated with 50 mM Tris-HCl, pH7.5, 0.9% NaCl, 0.01% Tween 20, 0.02% NaN3 containing 2% bovine serum albumin at room temperature with shaking for at least 30 minutes. […]

`O=C(O)CNCP(=O)(O)O` [glyphosate, N-phosphonomethyl-glycine] was tested, and the VmKm (domain switch experiment, v.247 (v1v2v3), substrate glyphosate) was 0.34, the “VmKm (Glyp)” value (v.247) was “.23” and the “lower Km for glyphosate than the wild type glyphosate oxidoreductase” value (v.247 versus wild type) was 10 fold. The “app Vm (Glyp)” value (v.247, pH 7.4, 30° C.) was 0.6 U/mg.

From patent USRE38825E1, “Glyphosate tolerant plants” (Monsanto Technology LLC, priority 1990, dated 2005)
